Measurements from patent publication US20230096766A1, “AMINO ACID HAVING FUNCTIONAL GROUP CAPABLE OF INTERMOLECULAR HYDROGEN BONDING, PEPTIDE COMPOUND CONTAINING SAME AND METHOD FOR PRODUCTION THEREOF” (Chugai Seiyaku Kabushiki Kaisha, priority 2018, published 2023).
*1 amine or outer side, *2 acyl side, *3 side chain or, on linkers, in order; H or OH if unused. Where a SMILES comes first, the peptide text is derived from it. Bridges are numbered along the chain shown (N, C = ends). [ ]: non-standard residue; d: D form. The star is where a group is joined. ξ: configuration not given here. hPhe(3-OMe,4-CONHMe) = CNC(=O)c1ccc(CC[C@H](N)C(=O)O)cc1OC; X1 = COc1cc(C[C@H](N[*:1])C(=O)[*:2])ccc1C(=O)NO; Phe(4-COOH) = N[C@@H](Cc1ccc(C(=O)O)cc1)C(=O)O; NMePhe(3-Cl) = CN[C@@H](Cc1cccc(Cl)c1)C(=O)O; NMeF = CN[C@@H](Cc1ccccc1)C(=O)O; NMeGABA = CN(CCCC(=O)[*:2])[*:1]; NMeI = CC[C@H](C)[C@H](NC)C(=O)O; NMeL = CN[C@@H](CC(C)C)C(=O)O; Thr(3ξ) = CC(O)[C@H](N)C(=O)O; NMeV = CN[C@H](C(=O)O)C(C)C; ξIle = CC[C@H](C)C(N)C(=O)O; NMeAbu = CC[C@H](NC)C(=O)O; ξNMeL = CNC(CC(C)C)C(=O)O; NMeA = CN[C@@H](C)C(=O)O; Piperidide = C1CCN(*)CC1; dNMeA = CN[C@H](C)C(=O)O; X8 = C1COC[C@@H](C*)N1; NBuGly = CCCCNCC(=O)O; N(OH)Me = CN(O)*; Sar = CNCC(=O)O; tBu = CC(C)(C)*

Experiment: in vitro
Details: human, Caco-2, Caco-2 (cm/sec)

SMILES | Papp
CCCCN1CC(=O)N(C)[C@@H](Cc2ccccc2)C(=O)N(C)[C@@H](CC(C)C)C(=O)N[C@@H](C(C)C)C(=O)N(C)[C@@H](CC(C)C)C(=O)N[C@H](C(=O)N2CCCCC2)CC(=O)N(C)CC(=O)N(C)[C@@H](CC(C)C)C(=O)N[C@@H](COC[C@@H]2COCCN2)C(=O)N(C)[C@@H](CC(C)C)C(=O)N[C@@H]([C@@H](C)O)C1=O [AP244] ([Sar][NMeL]S(X8)[NMeL]T[NBuGly][NMeF][NMeL]V[NMeL]D-Piperidide; lactam N-11) | 0.46 ×10⁻⁶ cm/s
CCCCN1CC(=O)N(C)[C@@H](Cc2ccccc2)C(=O)N(C)[C@@H](CC(C)C)C(=O)N[C@@H](COC[C@@H]2COCCN2)C(=O)N(C)[C@@H](CC(C)C)C(=O)N[C@H](C(=O)N2CCCCC2)CC(=O)N(C)CC(=O)N(C)[C@@H](CC(C)C)C(=O)NC([C@@H](C)CC)C(=O)N(C)[C@@H](CC(C)C)C(=O)N[C@@H]([C@@H](C)O)C1=O (stereo partly drawn) [AP245] ([Sar][NMeL][ξIle][NMeL]T[NBuGly][NMeF][NMeL]S(X8)[NMeL]D-Piperidide; lactam N-11) | 0.1 ×10⁻⁶ cm/s
CC[C@H]1C(=O)N(C)[C@@H](Cc2ccccc2)C(=O)N[C@@H](CC(C)C)C(=O)N(C)[C@@H](CC(C)C)C(=O)N(C)[C@@H](CC(C)C)C(=O)N[C@@H](COC[C@@H]2COCCN2)C(=O)N(C)CC(=O)N(C)[C@@H](CC(C)C)C(=O)N[C@H](C(=O)N2CCCCC2)CC(=O)N(C)[C@@H](C)C(=O)N[C@@H](CC(C)C)C(=O)N1C [AP246] ([NMeA]L[NMeAbu][NMeF]L[NMeL][NMeL]S(X8)[Sar][NMeL]D-Piperidide; lactam N-11) | 0.23 ×10⁻⁶ cm/s
CCCCN1CC(=O)N(C)[C@@H](Cc2ccccc2)C(=O)N(C)[C@@H](CC(C)C)C(=O)N[C@@H](CC(C)C)C(=O)N(C)[C@@H](CC(C)C)C(=O)N[C@H](C(=O)N2CCCCC2)CC(=O)N(C)CC(=O)N(C)[C@@H](CC)C(=O)N[C@@H](C(C)C)C(=O)N(C)[C@@H](CC)C(=O)N[C@@H](COC[C@@H]2COCCN2)C1=O [AP247] ([Sar][NMeAbu]V[NMeAbu]S(X8)[NBuGly][NMeF][NMeL]L[NMeL]D-Piperidide; lactam N-11) | 0.69 ×10⁻⁶ cm/s
CCCCN1CC(=O)N(C)[C@@H](CC(C)C)C(=O)N[C@@H](COC(C)(C)C)C(=O)N(C)[C@@H](Cc2ccccc2)C(=O)N(C)[C@@H](CC(C)C)C(=O)N[C@H](C(=O)N2CCCCC2)CC(=O)N[C@H](C(C)C)C(=O)N(C)[C@@H](C(C)C)C(=O)N[C@@H](Cc2ccc(C(=O)N(C)O)cc2)C(=O)N(C)[C@@H](CC(C)C)C(=O)N[C@@H]([C@@H](C)O)C1=O [AP248] ([dV][NMeV][Phe(4-COOH)](N(OH)Me)[NMeL]T[NBuGly][NMeL]S(tBu)[NMeF][NMeL]D-Piperidide; lactam N-11) | 0.24 ×10⁻⁶ cm/s
CCCCN1CC(=O)N(C)[C@@H](CC(C)C)C(=O)N[C@@H](Cc2ccc(C(=O)N(C)O)cc2)C(=O)N(C)[C@@H](CC(C)C)C(=O)N(C)[C@@H](CC(C)C)C(=O)N[C@H](C(=O)N2CCCCC2)CC(=O)N[C@H](CC(C)C)C(=O)N(C)[C@@H](Cc2ccccc2)C(=O)N[C@@H](C(C)C)C(=O)N(C)C(CC(C)C)C(=O)N[C@@H]([C@@H](C)O)C1=O (stereo partly drawn) [AP249] ([dL][NMeF]V[ξNMeL]T[NBuGly][NMeL][Phe(4-COOH)](N(OH)Me)[NMeL][NMeL]D-Piperidide; lactam N-11) | 0.04 ×10⁻⁶ cm/s
CCCCN1CC(=O)N(C)[C@@H](CC(C)C)C(=O)N[C@@H](COC(C)(C)C)C(=O)N(C)[C@@H]([C@@H](C)CC)C(=O)N(C)[C@@H](CC(C)C)C(=O)N[C@H](C(=O)N2CCCCC2)CC(=O)N[C@H](C)C(=O)N(C)[C@@H](Cc2ccccc2)C(=O)N[C@@H](Cc2ccc(C(=O)N(C)O)cc2)C(=O)N(C)[C@@H](CC(C)C)C(=O)N[C@@H]([C@@H](C)O)C1=O [AP250] ([dA][NMeF][Phe(4-COOH)](N(OH)Me)[NMeL]T[NBuGly][NMeL]S(tBu)[NMeI][NMeL]D-Piperidide; lactam N-11) | 0.12 ×10⁻⁶ cm/s
CC[C@H](C)[C@@H]1NC(=O)[C@H](CC(C)C)N(C)C(=O)CCCN(C)C(=O)C[C@@H](C(=O)N2CCCCC2)NC(=O)[C@H](CC(C)C)N(C)C(=O)[C@H](CC(C)C)N(C)C(=O)[C@H]([C@@H](C)O)NC(=O)[C@H](CC(C)C)N(C)C(=O)[C@H](Cc2ccc(C(=O)N(C)O)cc2)NC(=O)[C@H](CC(C)C)N(C)C(=O)[C@H](Cc2ccccc2)N(C)C1=O [AP251] ([NMeGABA][NMeL]I[NMeF][NMeL][Phe(4-COOH)](N(OH)Me)[NMeL]T[NMeL][NMeL]D-Piperidide; lactam N-11) | 0.03 ×10⁻⁶ cm/s
CC(C)C[C@@H]1NC(=O)[C@H](CC(C)C)N(C)C(=O)C[C@@H](C(=O)N2CCCCC2)NC(=O)[C@H](CC(C)C)N(C)C(=O)CN(C)C(=O)[C@H]([C@@H](C)O)NC(=O)[C@H](C(C)C)N(C)C(=O)[C@H](CC(C)C)N(C)C(=O)[C@H](Cc2ccc(C(=O)N(C)O)cc2)NC(=O)[C@H](CC(C)C)N(C)C(=O)[C@H](CC(C)C)N(C)C1=O [AP253] ([NMeL]L[NMeL][NMeL][Phe(4-COOH)](N(OH)Me)[NMeL][NMeV]T[Sar][NMeL]D-Piperidide; lactam N-11) | 0.12 ×10⁻⁶ cm/s
CCCCN1CC(=O)N(C)[C@@H](CC(C)C)C(=O)N(C)[C@@H](CC(C)C)C(=O)N[C@@H](COC(C)(C)C)C(=O)N(C)[C@@H](CC(C)C)C(=O)N[C@H](C(=O)N2CCCCC2)CC(=O)N(C)CC(=O)N(C)[C@@H](Cc2cccc(Cl)c2)C(=O)N[C@@H](Cc2ccc(C(=O)N(C)O)cc2)C(=O)N(C)[C@@H](CC(C)C)C(=O)N[C@@H]([C@@H](C)O)C1=O [AP254] ([Sar][NMePhe(3-Cl)][Phe(4-COOH)](N(OH)Me)[NMeL]T[NBuGly][NMeL][NMeL]S(tBu)[NMeL]D-Piperidide; lactam N-11) | 0.15 ×10⁻⁶ cm/s
CC[C@H](C)[C@@H]1NC(=O)[C@H](CC(C)C)N(C)C(=O)CN(C)C(=O)C[C@@H](C(=O)N2CCCCC2)NC(=O)[C@H](CC(C)C)N(C)C(=O)[C@H](Cc2ccc(C(=O)N(C)O)cc2)NC(=O)[C@H](CC(C)C)N(C)C(=O)[C@H](Cc2cccc(Cl)c2)N(C)C(=O)CN(C)C(=O)[C@H]([C@@H](C)O)NC(=O)[C@H](CC(C)C)N(C)C1=O [AP255] ([Sar][NMeL]I[NMeL]T[Sar][NMePhe(3-Cl)][NMeL][Phe(4-COOH)](N(OH)Me)[NMeL]D-Piperidide; lactam N-11) | 0.05 ×10⁻⁶ cm/s
CCCCN1CC(=O)N(C)[C@@H](CC(C)C)C(=O)N[C@@H](COC(C)(C)C)C(=O)N(C)[C@@H](Cc2ccccc2)C(=O)N(C)[C@@H](CC(C)C)C(=O)N[C@H](C(=O)N2CCCCC2)CC(=O)N[C@H](C(C)C)C(=O)N(C)[C@@H](C(C)C)C(=O)N[C@@H](Cc2ccc(C(=O)NO)c(OC)c2)C(=O)N(C)[C@@H](CC(C)C)C(=O)N[C@@H]([C@@H](C)O)C1=O [AP256] ([dV][NMeV][X1][NMeL]T[NBuGly][NMeL]S(tBu)[NMeF][NMeL]D-Piperidide; lactam N-11) | 0.08 ×10⁻⁶ cm/s
CCCCN1CC(=O)N(C)[C@@H](CC(C)C)C(=O)N[C@@H](Cc2ccc(C(=O)NO)c(OC)c2)C(=O)N(C)[C@@H](CC(C)C)C(=O)N(C)[C@@H](CC(C)C)C(=O)N[C@H](C(=O)N2CCCCC2)CC(=O)N[C@H](CC(C)C)C(=O)N(C)[C@@H](Cc2ccccc2)C(=O)N[C@@H](C(C)C)C(=O)N(C)[C@@H](CC(C)C)C(=O)N[C@@H]([C@@H](C)O)C1=O [AP257] ([dL][NMeF]V[NMeL]T[NBuGly][NMeL][X1][NMeL][NMeL]D-Piperidide; lactam N-11) | 0.03 ×10⁻⁶ cm/s
CCCCN1CC(=O)N(C)[C@@H](CC(C)C)C(=O)N(C)[C@@H](CC(C)C)C(=O)N[C@@H](COC(C)(C)C)C(=O)N(C)[C@@H](CC(C)C)C(=O)N[C@H](C(=O)N2CCCCC2)CC(=O)N(C)CC(=O)N(C)[C@@H](Cc2cccc(Cl)c2)C(=O)N[C@@H](Cc2ccc(C(=O)NO)c(OC)c2)C(=O)N(C)[C@@H](CC(C)C)C(=O)N[C@@H]([C@@H](C)O)C1=O [AP260] ([Sar][NMePhe(3-Cl)][X1][NMeL]T[NBuGly][NMeL][NMeL]S(tBu)[NMeL]D-Piperidide; lactam N-11) | 0.04 ×10⁻⁶ cm/s
CC[C@H](C)[C@@H]1NC(=O)[C@H](CC(C)C)N(C)C(=O)CN(C)C(=O)C[C@@H](C(=O)N2CCCCC2)NC(=O)[C@H](CC(C)C)N(C)C(=O)[C@H](Cc2ccc(C(=O)NO)c(OC)c2)NC(=O)[C@H](CC(C)C)N(C)C(=O)[C@H](Cc2cccc(Cl)c2)N(C)C(=O)CN(C)C(=O)[C@H](C(C)O)NC(=O)[C@H](CC(C)C)N(C)C1=O (stereo partly drawn) [AP261] ([Sar][NMeL]I[NMeL][Thr(3ξ)][Sar][NMePhe(3-Cl)][NMeL][X1][NMeL]D-Piperidide; lactam N-11) | 0.02 ×10⁻⁶ cm/s
CNC(=O)c1ccc(CC[C@@H]2NC(=O)[C@H](CC(C)C)N(C)C(=O)[C@H]([C@@H](C)O)NC(=O)[C@H](CC(C)C)N(C)C(=O)[C@H](CC(C)C)N(C)C(=O)[C@@H](C)N(C)C(=O)C[C@@H](C(=O)N3CCCCC3)NC(=O)[C@H](CC(C)C)N(C)C2=O)cc1OC [AP262] ([dNMeA][NMeL][NMeL]T[NMeL][hPhe(3-OMe,4-CONHMe)][NMeL]D-Piperidide; lactam N-8) | 0.17 ×10⁻⁶ cm/s
CC[C@H](C)[C@@H]1NC(=O)[C@H](CC(C)C)NC(=O)[C@H](CC(C)C)N(C)C(=O)[C@H](CC(C)C)NC(=O)C[C@@H](C(=O)N2CCCCC2)NC(=O)[C@H](CC(C)C)N(C)C(=O)[C@H]([C@@H](C)O)NC(=O)[C@H](CCc2ccc(C(=O)NC)c(OC)c2)NC(=O)[C@H](CC(C)C)N(C)C1=O [AP263] (L[NMeL]LI[NMeL][hPhe(3-OMe,4-CONHMe)]T[NMeL]D-Piperidide; lactam N-9) | 1.8 ×10⁻⁶ cm/s
CCCCN1CC(=O)N[C@@H](CC(C)C)C(=O)N2CCC[C@H]2C(=O)N(C)[C@@H](C(C)C)C(=O)N[C@@H](CCc2ccc(C(=O)NC)c(OC)c2)C(=O)N(C)[C@@H](Cc2ccccc2)C(=O)N(C)[C@@H](CC(C)C)C(=O)N[C@@H](CC(C)C)C(=O)N(C)[C@@H]([C@@H](C)CC)C(=O)N[C@H](C(=O)N2CCCCC2)CC(=O)N[C@H](C(C)C)C(=O)N[C@@H]([C@@H](C)O)C1=O [AP265] ([dV]T[NBuGly]LP[NMeV][hPhe(3-OMe,4-CONHMe)][NMeF][NMeL]L[NMeI]D-Piperidide; lactam N-12) | 0.46 ×10⁻⁶ cm/s
CC[C@H](C)[C@@H]1NC(=O)[C@H](Cc2ccccc2)N(C)C(=O)[C@H](CCc2ccc(C(=O)NC)c(OC)c2)NC(=O)[C@H](CC(C)C)N(C)C(=O)[C@H](C(C)C)NC(=O)[C@H](CC(C)C)N(C)C(=O)[C@H](CC(C)C)N(C)C(=O)CNC(=O)[C@H](CC)N(C)C(=O)C[C@@H](C(=O)N2CCCCC2)NC(=O)[C@H]([C@@H](C)O)NC(=O)[C@H](CC(C)C)N(C)C(=O)[C@H](CC(C)C)N(C)C1=O [AP266] ([NMeAbu]G[NMeL][NMeL]V[NMeL][hPhe(3-OMe,4-CONHMe)][NMeF]I[NMeL][NMeL]TD-Piperidide; lactam N-13) | < 0.0895 ×10⁻⁶ cm/s
